Data published in ChEMBL document CHEMBL4190175 (Medchemcomm, 2016).
Values after ≈ are worked out from the molar mass of the structure shown.

Assays:
[1] = Thermodynamic solubility of the compound; type: physicochemical; settings: read-out: Therm_solubility
[2] = Inhibition of sodium channel site 2 (unknown origin); set-up: species or system Homo sapiens
[3] = target: T1, Transient receptor potential cation channel subfamily A member 1 (Homo sapiens, UniProt O75762); assay: Antagonist activity at human TRPA1 by electrophysiology assay
T1 sequence (O75762 whole entry): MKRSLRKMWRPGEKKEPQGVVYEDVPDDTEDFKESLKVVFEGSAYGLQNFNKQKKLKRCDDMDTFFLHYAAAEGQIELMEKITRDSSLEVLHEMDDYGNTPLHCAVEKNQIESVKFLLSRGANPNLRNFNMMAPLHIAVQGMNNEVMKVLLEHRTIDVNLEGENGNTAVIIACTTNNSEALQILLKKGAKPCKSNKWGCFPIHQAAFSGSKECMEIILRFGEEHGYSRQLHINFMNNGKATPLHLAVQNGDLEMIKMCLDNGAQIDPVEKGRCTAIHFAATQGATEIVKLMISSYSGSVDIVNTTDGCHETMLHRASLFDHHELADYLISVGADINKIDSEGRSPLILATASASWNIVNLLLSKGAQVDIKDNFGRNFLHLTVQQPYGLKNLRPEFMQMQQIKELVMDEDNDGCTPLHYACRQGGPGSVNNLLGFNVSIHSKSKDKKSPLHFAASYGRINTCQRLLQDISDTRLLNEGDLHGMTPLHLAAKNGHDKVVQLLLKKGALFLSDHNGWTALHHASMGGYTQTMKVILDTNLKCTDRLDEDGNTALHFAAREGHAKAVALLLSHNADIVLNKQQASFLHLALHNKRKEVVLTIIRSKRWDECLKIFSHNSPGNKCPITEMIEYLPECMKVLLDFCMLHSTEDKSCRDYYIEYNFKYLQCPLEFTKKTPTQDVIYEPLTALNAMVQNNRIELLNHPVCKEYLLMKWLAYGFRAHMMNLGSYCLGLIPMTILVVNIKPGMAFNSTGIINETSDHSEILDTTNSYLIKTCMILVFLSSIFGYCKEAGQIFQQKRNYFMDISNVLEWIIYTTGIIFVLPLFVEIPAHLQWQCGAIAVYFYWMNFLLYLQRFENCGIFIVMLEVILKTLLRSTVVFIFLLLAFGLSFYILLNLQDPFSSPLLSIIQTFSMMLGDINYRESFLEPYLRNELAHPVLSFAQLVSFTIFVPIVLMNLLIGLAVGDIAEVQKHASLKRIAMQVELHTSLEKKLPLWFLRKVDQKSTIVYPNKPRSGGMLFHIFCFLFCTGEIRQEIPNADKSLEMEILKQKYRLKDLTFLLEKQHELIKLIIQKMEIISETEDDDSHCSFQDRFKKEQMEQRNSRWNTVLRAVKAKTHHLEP

Salmonella typhimurium = assay: Genotoxicity in Salmonella typhimurium by Ames test; type: toxicity, organism-based; settings: salmonella enterica subsp. enterica serovar typhimurium
Cytochrome P450 3A4 = Cytochrome P450 3A4 (Homo sapiens, UniProt P08684); assay: Inhibition of CYP3A4 (unknown origin); type: ADME
Sequence of Cytochrome P450 3A4 (P08684 whole entry): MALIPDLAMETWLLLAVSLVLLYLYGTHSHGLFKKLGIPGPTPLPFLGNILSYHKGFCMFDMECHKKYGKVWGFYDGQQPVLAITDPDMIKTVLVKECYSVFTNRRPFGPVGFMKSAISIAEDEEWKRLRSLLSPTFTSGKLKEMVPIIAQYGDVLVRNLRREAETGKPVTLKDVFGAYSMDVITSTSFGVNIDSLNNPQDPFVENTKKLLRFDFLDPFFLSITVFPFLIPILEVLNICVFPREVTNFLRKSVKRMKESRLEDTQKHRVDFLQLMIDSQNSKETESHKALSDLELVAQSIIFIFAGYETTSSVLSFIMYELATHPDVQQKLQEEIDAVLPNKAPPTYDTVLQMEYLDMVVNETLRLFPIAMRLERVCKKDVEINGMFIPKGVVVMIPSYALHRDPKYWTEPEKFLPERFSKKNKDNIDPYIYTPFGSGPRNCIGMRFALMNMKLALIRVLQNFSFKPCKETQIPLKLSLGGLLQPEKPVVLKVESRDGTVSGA

[4] = Permeability in Sprague-Dawley rat skin at 0.68 mg applied topically measured after 24 hrs; type: ADME, tissue-based, Zone of skin; settings: in vivo, topical_or_ocular
Cytochrome P450 2C9 = Cytochrome P450 2C9 (Homo sapiens, UniProt P11712); assay: Inhibition of CYP2C9 (unknown origin); type: ADME
Sequence of Cytochrome P450 2C9 (P11712 whole entry, the tested form may be a part): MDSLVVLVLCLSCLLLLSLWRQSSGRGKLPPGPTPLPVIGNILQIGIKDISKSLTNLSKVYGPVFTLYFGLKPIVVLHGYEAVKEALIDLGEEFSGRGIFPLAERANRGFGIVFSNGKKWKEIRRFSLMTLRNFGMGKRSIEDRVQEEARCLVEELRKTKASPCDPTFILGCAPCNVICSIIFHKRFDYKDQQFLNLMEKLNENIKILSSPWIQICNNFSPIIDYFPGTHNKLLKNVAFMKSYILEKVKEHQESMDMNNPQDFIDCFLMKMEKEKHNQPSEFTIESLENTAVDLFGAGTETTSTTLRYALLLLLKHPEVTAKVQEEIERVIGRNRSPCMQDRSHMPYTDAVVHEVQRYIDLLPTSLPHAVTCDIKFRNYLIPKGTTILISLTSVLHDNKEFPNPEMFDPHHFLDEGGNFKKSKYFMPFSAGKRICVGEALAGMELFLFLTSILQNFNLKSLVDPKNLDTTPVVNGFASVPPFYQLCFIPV

[5] = target: T1, Transient receptor potential cation channel subfamily A member 1; assay: Antagonist activity at human TRPA1 oS5 chimera containing (870 to 896 residues) expressed in 293-T-REx cells at holding potential of 15 mV measured after 1 min by PatchXpress electrophysiology assay; type: cell-based
[6] = target: Voltage-gated inwardly rectifying potassium channel KCNH2 (Homo sapiens, UniProt Q12809); assay: Inhibition of dofetilide binding to human ERG
Sequence of Voltage-gated inwardly rectifying potassium channel KCNH2 (Q12809 whole entry): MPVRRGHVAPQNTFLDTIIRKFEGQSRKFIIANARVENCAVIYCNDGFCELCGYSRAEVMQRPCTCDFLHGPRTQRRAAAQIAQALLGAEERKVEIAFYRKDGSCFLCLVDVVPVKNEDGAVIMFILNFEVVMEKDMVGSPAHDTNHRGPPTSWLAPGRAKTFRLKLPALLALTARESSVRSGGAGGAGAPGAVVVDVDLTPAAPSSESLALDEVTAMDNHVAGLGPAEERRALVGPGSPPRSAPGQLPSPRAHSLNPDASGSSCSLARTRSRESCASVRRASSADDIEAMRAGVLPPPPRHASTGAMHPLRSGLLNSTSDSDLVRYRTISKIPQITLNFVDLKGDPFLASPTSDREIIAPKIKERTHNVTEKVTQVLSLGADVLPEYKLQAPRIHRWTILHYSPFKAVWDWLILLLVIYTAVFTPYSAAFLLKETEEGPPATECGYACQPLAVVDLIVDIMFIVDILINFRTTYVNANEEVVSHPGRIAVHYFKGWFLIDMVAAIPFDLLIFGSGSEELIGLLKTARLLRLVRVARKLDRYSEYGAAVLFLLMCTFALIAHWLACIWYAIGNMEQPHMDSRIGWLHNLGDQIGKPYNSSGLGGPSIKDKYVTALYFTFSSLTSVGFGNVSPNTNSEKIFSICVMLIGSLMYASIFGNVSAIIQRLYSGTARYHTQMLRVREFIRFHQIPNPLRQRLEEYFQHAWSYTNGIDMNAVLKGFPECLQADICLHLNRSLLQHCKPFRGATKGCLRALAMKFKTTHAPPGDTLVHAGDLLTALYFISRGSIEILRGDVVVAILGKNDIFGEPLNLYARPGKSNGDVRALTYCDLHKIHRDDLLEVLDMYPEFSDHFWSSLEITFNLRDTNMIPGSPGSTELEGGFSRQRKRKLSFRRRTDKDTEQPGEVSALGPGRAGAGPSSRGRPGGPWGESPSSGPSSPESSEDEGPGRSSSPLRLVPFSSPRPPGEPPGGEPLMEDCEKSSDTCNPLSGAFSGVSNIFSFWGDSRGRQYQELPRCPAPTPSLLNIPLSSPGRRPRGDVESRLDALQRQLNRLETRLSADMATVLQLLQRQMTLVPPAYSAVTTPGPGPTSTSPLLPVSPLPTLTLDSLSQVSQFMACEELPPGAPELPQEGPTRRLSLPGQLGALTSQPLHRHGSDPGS

[7] = target: T1, Transient receptor potential cation channel subfamily A member 1; assay: Antagonist activity at full length human TRPA1 at holding potential of 15 mV measured after 1 min by PatchXpress electrophysiology assay
[8] = Fraction unbound in human plasma; type: ADME, cell-free
[9] = Stability in human liver microsomes assessed as metabolic turnover number at 10 uM after 15 mins by LC-MS/UV analysis; type: ADME, microsome; settings: read-out: Stability
Cytochrome P450 2D6 = Cytochrome P450 2D6 (Homo sapiens, UniProt P10635); assay: Inhibition of CYP2D6 (unknown origin); type: ADME
Sequence of Cytochrome P450 2D6 (P10635 whole entry): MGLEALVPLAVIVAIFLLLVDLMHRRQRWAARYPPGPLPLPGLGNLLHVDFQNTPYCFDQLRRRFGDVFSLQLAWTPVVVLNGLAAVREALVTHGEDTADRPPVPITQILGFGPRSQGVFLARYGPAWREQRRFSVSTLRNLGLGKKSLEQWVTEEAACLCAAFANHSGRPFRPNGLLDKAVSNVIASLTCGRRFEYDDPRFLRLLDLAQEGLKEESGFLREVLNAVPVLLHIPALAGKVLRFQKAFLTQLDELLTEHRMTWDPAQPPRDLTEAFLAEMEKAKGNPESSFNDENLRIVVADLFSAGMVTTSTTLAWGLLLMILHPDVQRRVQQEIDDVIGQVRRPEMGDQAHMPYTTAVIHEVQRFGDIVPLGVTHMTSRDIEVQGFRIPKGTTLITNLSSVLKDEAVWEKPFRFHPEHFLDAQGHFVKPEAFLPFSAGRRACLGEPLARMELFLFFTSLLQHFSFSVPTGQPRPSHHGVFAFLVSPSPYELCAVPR

[10] = Ratio of permeability from basolateral to apical side over apical to basolateral side in RRCK cells expressing MDR1; type: ADME, cell-based, Canis lupus familiaris; settings: dog, mdckii-le
[11] = Passive permeability of the compound in RRCK cells; type: ADME, cell-based, Canis lupus familiaris, MDCKII-LE; settings: dog, MDCK; read-out: permeability

## O=C(NC[C@@H](Cc1ccccc1)N1CCC(O)(C(F)(F)F)CC1)C1(c2ccc(Cl)cc2)CCCC1
[1]
  solubility thermodynamic: 0.6 µg/mL (≈ 1.18 µM)
[2]
  IC50: 730 nM
[3]
  IC50: 0.7 nM
Salmonella typhimurium
  Activity: Non-Toxic
Cytochrome P450 3A4
  IC50: 2160 nM
[4]
  permeability: 0.1 ×10⁻⁵ cm/hr
Cytochrome P450 2C9
  IC50: 11400 nM
[5]
  IC50: 1580 nM
[6]
  Ki: 25700 nM
[7]
  IC50: 0.72 to 8 nM
[8]
  fraction unbound: 0.0011
[9]
  microsomal CLint at 10 µM: 246 µL/min/mg
Cytochrome P450 2D6
  IC50: 450 nM
[10]
  Ratio: 11
[11]
  Papp: 1 ×10⁻⁶ cm/s
